How the values were obtained:
[1] = prior art; cited from earlier work

Compound	melting point	pharmacological activity [1]
CCOC(=O)c1cccc(NC(=O)c2n[nH]c3ccccc23)c1	187 to 188 °C	–
O=C(Nc1ccncc1)c1n[nH]c2ccc(I)cc12	> 260 °C	–
O=C(NCCCn1ccnc1)c1n[nH]c2ccccc12	154 to 155 °C	–
O=C(Nc1ccncc1)c1n[nH]c2ccc([N+](=O)[O-])cc12	> 260 °C	–
O=C(O)c1cccc(NC(=O)c2n[nH]c3ccccc23)c1	> 250 °C	–
Cc1ccc(CNC(=O)c2n[nH]c3ccccc23)cc1 [N-(4-Methylbenzyl)-1H-indazole-3-carboxamide]	–	no pharmacological activity
O=C(Nc1ccc(Nc2ccccc2)cc1)c1n[nH]c2ccccc12 [Compound No. 4, N-(4-Phenylaminophenyl)-1H-indazole-3-carboxamide]	218 °C	–

From patent publication US7482342B2, “Indazolecarboxamide derivatives, preparation and use thereof as CDK1, CDK2 and CDK4 inhibitors” (sanofi-aventis, priority 2002, dated 2009)
